Read-outs that look alike come from different tables or passages of the source.
Tests used:
Sting protein [1] = biological target: T1, Sting protein (Homo sapiens, UniProt Q86WV6, G230A/H232R/R293Q/R71H); assay: Agonistic function test on Sting protein: IFN-β and CXCL10 (IP10) cytokines produced by THP1 cells (ELISA); format: cell-based; conditions: for EC50: 18 hours, ELISA of supernatant; for activity of stimulating IFN-β and CXCL10 (IP10) cytokines produced by THP1 cells (in words): listed compounds compared with the reference compound
T1 construct: endogenous in cells; host or cells: THP1 cells (Shanghai Cell Bank)
T1 sequence (Q86WV6 whole entry R71H/G230A/H232R/R293Q): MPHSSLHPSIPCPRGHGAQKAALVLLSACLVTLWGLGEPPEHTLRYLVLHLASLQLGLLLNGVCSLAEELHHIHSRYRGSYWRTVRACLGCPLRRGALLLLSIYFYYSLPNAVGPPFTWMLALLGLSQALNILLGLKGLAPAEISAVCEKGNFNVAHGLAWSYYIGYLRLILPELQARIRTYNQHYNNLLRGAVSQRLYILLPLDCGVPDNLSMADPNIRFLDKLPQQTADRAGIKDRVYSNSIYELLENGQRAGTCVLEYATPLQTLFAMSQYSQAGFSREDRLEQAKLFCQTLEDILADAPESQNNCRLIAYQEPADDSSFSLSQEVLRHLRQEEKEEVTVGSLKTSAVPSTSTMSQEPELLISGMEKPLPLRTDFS
Description: In this experiment, the function of sting agonist was evaluated by detecting the changes of IFN-β and CXCL10 (IP10) cytokines produced by human peripheral blood mononuclear cell line THP1 cells (Shanghai Cell Bank) stimulated by the compounds. On the first day of the experiment, the ELISA plate was coated according to the IFN-β (R&D, #DY814-05) and IP10 (BD, #550926) ELISA test kit instructions. The compound was dissolved into DMSO stock solution and diluted with culture medium to a 2× working concentration, added to a 96-well plate, 100 μL per well. The THP1 cells in the logarithmic growth phase were taken to count, and were diluted to a concentration of 2*10^6/mL, added to the above-mentioned 96-well plate containing the compounds, with […], per well, mixed well, and incubated in a 37° C., 5% CO2 incubator for 18 hours. On the second day, the above cell culture supernatant was taken, 100 μL per well, and tested according to IFN-β and IP10 ELISA test kits respectively. The OD450 value was read, and converted into IFN-β and IP10 concentration according to the standard curve, and fitted with GraphPad 5.0 to calculate the EC50 value of the dose-efficiency curve.

Sting protein [2] = biological target: Sting protein (Homo sapiens, UniProt Q86WV6); assay: Binding affinity test of the compound and Sting protein by protein thermal transfer test (TSA); conditions: Kd fitted from change of ΔTm with compound concentration
Sequence of Sting protein (Homo sapiens, UniProt Q86WV6) (Q86WV6 whole entry H232R, species assumed): as the sequence (Q86WV6 whole entry R71H/G230A/H232R/R293Q) above, with H71R, A230G, Q293R counted along it
Description: The protein thermal transfer test (TSA) was used to determine the binding affinity of the compound to Sting protein. The 100 ug/ml Sting protein was mixed with different concentrations of the compound and 5× SYPRO Orange dye in a buffer of 20 mM Hepes, 150 mM NaCl, 1 mM MgCl2, 1 mM DTT, pH=7.5. The protein dissolution curve was measured on a qPCR instrument, the Tm value was fitted with Protein Thermal Shift Software 1.3 software, and the Tm difference of the protein was calculated when different concentrations of compound and no compound were added. The dissociation constant Kd was fitted and obtained according to the change of ΔTm with the concentration of the compound. […] The Kd value of each compound is classified according to the following instructions: […]

Row | EC50 (Sting protein [1]; read-out: IFN-β EC50) [nM] | EC50 (Sting protein [1]; read-out: IP10 EC50) [nM] | Kd (Sting protein [2]) [nM] | activity of stimulating IFN-β and CXCL10 (IP10) cytokines produced by THP1 cells (in words) (Sting protein [1]) | SMILES
1 | 100 to 1000 | 10 to 100 | 1000 to 10000 |  | CCc1nc(C)sc1C(=O)Nc1nc2cc(C(N)=O)cc(OCCCN3CCN(C(C)C)CC3)c2n1C/C=C/Cn1c(NC(=O)c2cc(C)nn2CC)nc2cc(C(N)=O)cc(OC)c21 [Example 9]
2 | 100 to 1000 | 100 to 1000 | 1000 to 10000 |  | CCc1nc(C)sc1C(=O)Nc1nc2cc(C(N)=O)cc(OC)c2n1C/C=C/Cn1c(NC(=O)c2cc(C)nn2CC)nc2cc(C(N)=O)cc(OCCCN3CCN(C(C)C)CC3)c21 [Example 14]
3 |  | 100 to 1000 | 1000 to 10000 |  | CCc1nc(C)sc1C(=O)Nc1nc2cc(C(N)=O)cc(OCCCN3CCN(C)CC3)c2n1C/C=C/Cn1c(NC(=O)c2cc(C)nn2CC)nc2cc(C(N)=O)cc(SC)c21 [Example 16]
4 | 100 to 1000 | 10 to 100 | 1000 to 10000 |  | CCc1nc(C)sc1C(=O)Nc1nc2cc(C(N)=O)cc(OCCCN3CCN(C(C)C)CC3)c2n1C/C=C/Cn1c(NC(=O)c2cc(C)nn2CC)nc2cc(C(N)=O)cc(SC)c21 [Example 18]
5 | 100 to 1000 | 10 to 100 | 1000 to 10000 |  | CCc1nc(C)sc1C(=O)Nc1nc2cc(C(N)=O)cc(SC)c2n1C/C=C/Cn1c(NC(=O)c2cc(C)nn2CC)nc2cc(C(N)=O)cc(OCCCN3CCN(C)CC3)c21 [Example 20]
6 | 100 to 1000 | 10 to 100 | 1000 to 10000 |  | CCc1nc(C)sc1C(=O)Nc1nc2cc(C(N)=O)cc(SC)c2n1C/C=C/Cn1c(NC(=O)c2cc(C)nn2CC)nc2cc(C(N)=O)cc(OCCCN3CCN(CC)CC3)c21 [Example 21]
7 | 100 to 1000 | 10 to 100 | 1000 to 10000 |  | CCc1nc(C)sc1C(=O)Nc1nc2cc(C(N)=O)cc(SC)c2n1C/C=C/Cn1c(NC(=O)c2cc(C)nn2CC)nc2cc(C(N)=O)cc(OCCCN3CCN(C(C)C)CC3)c21 [Example 22]
8 | 10 to 100 | 10 to 100 | 1000 to 10000 | comparable or even higher activity | CCc1nc(C)sc1C(=O)Nc1nc2cc(C(N)=O)cc(OCCCN3CCN(C(C)=O)CC3)c2n1C/C=C/Cn1c(NC(=O)c2cc(C)nn2CC)nc2cc(C(N)=O)cc(SC)c21 [Example 35]
9 | 100 to 1000 | 10 to 100 | 1000 to 10000 |  | CCc1nc(C)sc1C(=O)Nc1nc2cc(C(N)=O)cc(SC)c2n1C/C=C/Cn1c(NC(=O)c2cc(C)nn2CC)nc2cc(C(N)=O)cc(OCCCN3CCN(C(C)=O)CC3)c21 [Example 41]

Further lines, the molecule ahead of its results:

Row | SMILES | EC50 (Sting protein [1]; read-out: IFN-β EC50) [nM] | EC50 (Sting protein [1]; read-out: IP10 EC50) [nM] | Kd (Sting protein [2]) [nM] | activity of stimulating IFN-β and CXCL10 (IP10) cytokines produced by THP1 cells (in words) (Sting protein [1])
10 | CCc1nc(C)sc1C(=O)Nc1nc2cc(C(N)=O)cc(OCCCN3CCOCC3)c2n1C/C=C/Cn1c(NC(=O)c2cc(C)nn2CC)nc2cc(C(N)=O)cc(OC)c21 [Example 1] | 100 to 1000 | 10 to 100 | 1000 to 10000 | 
11 | CCc1nc(C)sc1C(=O)Nc1nc2cc(C(N)=O)cc(OC)c2n1C/C=C/Cn1c(NC(=O)c2sc(C)nc2CC)nc2cc(C(N)=O)cc(OCCCN3CCOCC3)c21 [Example 3] | 100 to 1000 | 10 to 100 | 1000 to 10000 | 
12 | CCc1nc(C)sc1C(=O)Nc1nc2cc(C(N)=O)cc(OCCCN3CCOCC3)c2n1C/C=C/Cn1c(NC(=O)c2cc(C)nn2CC)nc2cc(C(N)=O)cc(SC)c21 [Example 4] | 10 to 100 | < 10 | 1000 to 10000 | comparable or even higher activity
13 | CCc1nc(C)sc1C(=O)Nc1nc2cc(C(N)=O)cc(OC)c2n1C/C=C/Cn1c(NC(=O)c2cc(C)nn2CC)nc2cc(C(N)=O)cc(SCCCN3CCOCC3)c21 [Example 6] | 100 to 1000 | 100 to 1000 | 1000 to 10000 | 
14 | CCc1nc(C)sc1C(=O)Nc1nc2cc(C(N)=O)cc(OCCCN3CCN(C)CC3)c2n1C/C=C/Cn1c(NC(=O)c2cc(C)nn2CC)nc2cc(C(N)=O)cc(OC)c21 [Example 7, (E)-N-(5-carbamoyl-1-(4-(5-carbamoyl-2-(1-ethyl-3-methyl-1H-pyrazole-5-formylamino)-7-methoxy-1H-benzo[d]imidazol-1-yl)but-2-en-1-yl)-7-(3-(4-methylpiperazin-1-yl)propoxy)-1H-benzo[d]imidazol-2-yl)-4-ethyl-2-methylthiazole-5-formylamide] | 100 to 1000 | 100 to 1000 | 1000 to 10000 | 
15 | CCc1nc(C)sc1C(=O)Nc1nc2cc(C(N)=O)cc(OCCCN3CCN(CC)CC3)c2n1C/C=C/Cn1c(NC(=O)c2cc(C)nn2CC)nc2cc(C(N)=O)cc(OC)c21 [Example 8] | 100 to 1000 | 10 to 100 | 1000 to 10000 | 
16 | CCc1nc(C)sc1C(=O)Nc1nc2cc(C(N)=O)cc(OCCCN3CCN(C4CC4)CC3)c2n1C/C=C/Cn1c(NC(=O)c2cc(C)nn2CC)nc2cc(C(N)=O)cc(OC)c21 [Example 10] | 100 to 1000 | 10 to 100 | 1000 to 10000 | 
17 | CCc1nc(C)sc1C(=O)Nc1nc2cc(C(N)=O)cc(OCCCN3CCN(C(C)=O)CC3)c2n1C/C=C/Cn1c(NC(=O)c2cc(C)nn2CC)nc2cc(C(N)=O)cc(OC)c21 [Example 11] | 100 to 1000 | 10 to 100 | 1000 to 10000 | 
18 | CCc1nc(C)sc1C(=O)Nc1nc2cc(C(N)=O)cc(OC)c2n1C/C=C/Cn1c(NC(=O)c2cc(C)nn2CC)nc2cc(C(N)=O)cc(OCCCN3CCN(C)CC3)c21 [Example 12] |  | 100 to 1000 | 1000 to 10000 | 
19 | CCc1nc(C)sc1C(=O)Nc1nc2cc(C(N)=O)cc(OC)c2n1C/C=C/Cn1c(NC(=O)c2cc(C)nn2CC)nc2cc(C(N)=O)cc(OCCCN3CCN(CC)CC3)c21 [Example 13] | 100 to 1000 | 10 to 100 | 1000 to 10000 | 
20 | CCc1nc(C)sc1C(=O)Nc1nc2cc(C(N)=O)cc(OCCCN3CCN(C4CC4)CC3)c2n1C/C=C/Cn1c(NC(=O)c2cc(C)nn2CC)nc2cc(C(N)=O)cc(SC)c21 [Example 19] | < 10 | < 10 | 1000 to 10000 | comparable or even higher activity
21 | CCc1nc(C)sc1C(=O)Nc1nc2cc(C(N)=O)cc(SC)c2n1C/C=C/Cn1c(NC(=O)c2cc(C)nn2CC)nc2cc(C(N)=O)cc(OCCCN3CCN(C4CC4)CC3)c21 [Example 23] | 10 to 100 | 10 to 100 | 1000 to 10000 | comparable or even higher activity
22 | CCC(=O)N1CCN(CCCOc2cc(C(N)=O)cc3nc(NC(=O)c4cc(C)nn4CC)n(C/C=C/Cn4c(NC(=O)c5sc(C)nc5CC)nc5cc(C(N)=O)cc(OC)c54)c23)CC1 [Example 30] | 100 to 1000 | 10 to 100 | 1000 to 10000 | 
23 | CCc1nc(C)sc1C(=O)Nc1nc2cc(C(N)=O)cc(OCCCN3CCN(C(=O)OC)CC3)c2n1C/C=C/Cn1c(NC(=O)c2cc(C)nn2CC)nc2cc(C(N)=O)cc(SC)c21 [Example 40] | 10 to 100 |  | 1000 to 10000 | comparable or even higher activity
24 | CCc1nc(C)sc1C(=O)Nc1nc2cc(C(N)=O)cc(OCCCN3CCOCC3)c2n1C/C=C/Cn1c(NC(=O)c2c(F)c(C)nn2CC)nc2cc(C(N)=O)cc(OC)c21 [Example 47] | > 1000 | 10 to 100 | 1000 to 10000 | 
25 | CCc1nc(C)sc1C(=O)Nc1nc2cc(C(N)=O)cc(OC)c2n1C/C=C/Cn1c(NC(=O)c2c(F)c(C)nn2CC)nc2cc(C(N)=O)cc(OCCCN3CCOCC3)c21 [Example 48] | 100 to 1000 | 10 to 100 | 1000 to 10000 | 
26 | CCc1nc(C)sc1C(=O)Nc1nc2cc(C(N)=O)cc(OCCCN3CCOCC3)c2n1C/C=C/Cn1c(NC(=O)c2c(F)c(C)nn2CC)nc2cc(C(N)=O)cc(SC)c21 [Example 49] | 10 to 100 | < 10 | 1000 to 10000 | comparable or even higher activity
27 | CCc1nc(C)sc1C(=O)Nc1nc2cc(C(N)=O)cc(OCCCN3CCOCC3)c2n1C/C=C/Cn1c(NC(=O)c2sc(C)nc2CC)nc2cc(C(N)=O)cc(SC)c21 [Example 50] | 10 to 100 | 10 to 100 | 1000 to 10000 | comparable or even higher activity
28 | CCn1nc(C)cc1C(=O)Nc1nc2cc(C(N)=O)cc(OCCCN3CCOCC3)c2n1C/C=C/Cn1c(NC(=O)c2cc(C)nn2CC)nc2cc(C(N)=O)cc(SC)c21 [Example 54, (E)-1-(4-(5-carbamoyl-2-(1-ethyl-3-methyl-1H-pyrazole-5-formylamino)-7-(3-morpholinopropoxy)-1H-benzo[d]imidazol-1-yl)but-2-en-1-yl)-2-(1-ethyl-3-methyl-1H-pyrazole-5-carboxamino)-7-(methylthio)-1H-benzo[d]imidazole-5-formylamide] |  |  | 1000 to 10000 | 
